{"source": "patent US20210055311A1", "about": "“SCREENING METHOD FOR ESTROGENIC AND ANTI-ESTROGENIC ACTIVITY” (BUNDESINSTITUT FÜR RISIKOBEWERTUNG, priority 2018, published 2021)", "assay_type_in_all_cases": "cell-based, human", "key": {"[1]": {"tested_on": "MCF7/vBOS cells (DSM ACC3321)", "assay": "Formation of discontinuous basolateral adherens junctions upon anti-estrogen exposure (E-Cadherin immunofluorescence)", "conditions": "for formation of discontinuous adherens junctions (E-Cadherin staining): concentration and incubation time per compound as in FIGS. 1-3", "description": "The time usually required for formation of discontinuous basolateral adherens junctions will depend on the estrogen receptor binding affinity and concentration of the anti-estrogen used on the one hand and the cell used on the other hand, but a person skilled in the art will be readily capable of determining the appropriate time spans and concentration for a given anti-estrogen and cell. For example, if the cell is a cell as deposited under accession number DSM ACC3321, suitable concentration ranges and culture times for manifestation of the discontinuous basolateral adherens junctions phenotype in presence of fulvestrant, tamoxifen, ZK 164015, MPP dihydrochloride, and (Z)-4-hydroxytamoxifen, without being limited thereto, are:\nMCF7/vBOS cells were grown on glass coverslips in multi-well tissue culture plates (TPP) for 24 h and then treated for at least 48 h with 0.1% EtOH (solvent control) and different concentrations (10^−11 M, 10^−10 M, 10^−9 M, 10^−8 M, 10^−7 M) of the ERα antagonist fulvestrant (Sigma-Aldrich, CAS-No. 129453-61-8). During experiments, medium was exchanged on a daily basis. All experiments were performed at 37° C. with 5% CO2 in reduced-serum medium (phenol red-free DMEM (Gibco), 5% FBS (Biochrom, S 0615, LOT1353 W), 1% glutamine, 100 μg/ml streptomycin/100 U/ml penicillin (Biochrom)).\nAfter treatment with fulvestrant the adherens junction morphology of the cells was analysed by means of immunofluorescence microscopy. Briefly, cells were fixed with 3.7% formaldehyde in PBS for 15 min, permeabilized with 0.2% Triton X-100 in PBS for 30 min, and blocked with 5% FBS in PBS for 60 min (all steps at room temperature). Incubation with primary and secondary antibodies in PBS containing 1.5% BSA was carried out over night at 4° C. and for 1 h at room temperature, respectively. The following antibodies/dyes were used: anti-E-Cadherin (H-108, Santa Cruz); DAPI (Roche); secondary antibody conjugated to Cy3 (alternatives are, e.g.: Cy2, Alexa Fluor 488/555/647; all Invitrogen). The samples were then mounted in Dako fluorescence mounting medium (Dako) or VectaShield (Vector Labs). All images were acquired with an Axio Observer.Z1 widefield microscope equipped with an Apotome.2 device for optical sectioning using structured illumination (Zeiss). After 48 hours the fraction of cells displaying discontinuous adherens junctions was determined by CellProfiler/CellProfer-analyst software (see example 7).\nIn view of the results obtained with MCF7/vBOS cells upon exposure to fulvestrant the inventors speculated that a similar phenotype might be obtainable with other ERα antagonist as well. To test this hypothesis, the inventors used the ERα antagonists tamoxifen (Sigma-Aldrich, CAS-No. 10540-29-1), MPP dihydrochloride (Sigma-Aldrich, CAS-No. 911295-24-4), ZK164015 (Tocris, CAS-No. 177583-70-9), and (Z)-4-hydroxytamoxifen (Tocris, CAS-No. 68047-06-3). The same protocols as in example 2 were used with the following deviations: • Tamoxifen: Cells were grown for 24 h and then treated for 144 h with 10^−8 and 10^−6 M tamoxifen. • MPP dihydrochloride: Cells were grown for 24 h and then treated for 144 h with 10^−8 and 10^−6 M MPP dihydrochloride. • ZK164015: Cells were grown for 24 h and then treated for 48 h with 10^−9 and 10^−7 M ZK164015. • (Z)-4-hydroxytamoxifen: Cells were grown for 24 h and then treated for 72 h with 10^−9 and 10^−8 M (Z)-4-hydroxytamoxifen.\nSubsequently, quantitative image analysis was performed using a pipeline that builds on the CellProfiler software (Carpenter et al., Genome Biol., 2006; 7(10):R100.) for segmentation and extraction of cellular parameters, and on the CellProfiler Analyst software (Jones et al., BMC Bioinformatics, 2008 Nov. 15; 9:482) for parameter-based classification of cells. In the segmentation process, primary objects (nuclei) were identified from DAPI staining by global thresholding using Otsu's method. […]"}, "MCF-7/BOS cells": {"tested_on": "MCF-7/BOS cells", "assay": "Adherens junction morphology upon fulvestrant in parental MCF-7/BOS cells", "conditions": "10^−8 M, 48 h", "procedure": "(§1) Next, the inventors tried to reproduce the effects obtained with the cells as deposited under DSM ACC3321 with other conventional MCF-7 cells, namely MCF-7/BOS provided by Prof. Ana Soto (Tufts University School of Medicine, Boston, Mass., USA) and the MCF-7/ACC115 clone obtained from the Leibniz-Institut DSMZ-Deutsche Sammlung von Mikroorganismen and Zellkulturen GmbH (Braunschweig, Germany).\n(§2) Briefly, the MCF-7 cells were seeded and grown on glass coverslips in multi-well tissue culture plates (TPP) for 24 h to reach near 100% confluence and then treated for at least 48 h with 0.1% EtOH (solvent control) and the ERα antagonist fulvestrant (Sigma-Aldrich, CAS-No. 129453-61-8) at a concentration of 10^−8 M. During experiments, medium was exchanged on a daily basis. All experiments were performed at 37° C. with 5% CO2 in reduced-serum medium (phenol red-free DMEM (Gibco), 5% FBS (Biochrom, S 0615, LOT1353 W), 1% glutamine, 100 μg/ml streptomycin/100 U/ml penicillin (Biochrom))."}, "MCF-7/ACC115 cells": {"tested_on": "MCF-7/ACC115 cells", "assay": "Adherens junction morphology upon fulvestrant in MCF-7/ACC115 cells", "conditions": "10^−8 M, 48 h", "procedure": "as §1, §2"}, "[2]": {"tested_on": "MCF7/vBOS cells (DSM ACC3321)", "assay": "Formation of discontinuous basolateral adherens junctions upon anti-estrogen exposure (E-Cadherin immunofluorescence)"}, "[3]": {"conditions": "cell as deposited under DSM ACC3321"}}, "note": "“Also recorded” adds a separate entry of the source.", "data": [{"smiles": "C[C@]12CC[C@@H]3c4ccc(O)cc4C[C@@H](CCCCCCCCC[S+]([O-])CCCC(F)(F)C(F)(F)F)[C@H]3[C@@H]1CC[C@@H]2O", "note": "(stereo partly drawn) [Fulvestrant]", "values": [{"measurement": "activity in this assay relative to tamoxifen, ZK164015, MPP or (Z)-4-hydroxytamoxifen", "setting": "[1]", "value": "more active"}, {"measurement": "time after treatment within which discontinuous adherence junctions form", "setting": "[1]", "value": "two"}, {"measurement": "time within which discontinuous basolateral adherens junctions have stably formed", "setting": "[1]", "value": "28 to 48", "unit": "h"}, {"measurement": "stability of discontinuous basolateral adherens junctions without adding additional anti-estrogens", "setting": "[1]; after stable formation", "value": "≥ 72", "unit": "h"}, {"measurement": "Concentration (M) suitable for manifestation of the discontinuous basolateral adherens junctions phenotype", "setting": "[1]; [3]", "value": "10^−9-10^−7 M"}, {"measurement": "Culture time (h) typically required for formation of discontinuous basolateral adherens junctions", "setting": "[1]; [3]", "value": "24 to 96", "unit": "h"}, {"measurement": "formation of discontinuous adherens junctions (E-Cadherin staining)", "setting": "[1]", "value": "triggers the formation of discontinuous adherence junctions"}, {"measurement": "formation of discontinuous adherens junctions (E-Cadherin staining)", "setting": "[1]; listed as fulvestrant", "value": "formation of discontinuous adherens junctions; also recorded: morphology changes"}, {"measurement": "fraction of cells with continuous / discontinuous adherens junctions (CellProfiler quantification)", "setting": "[1]; different concentrations, 48 hours", "value": "fraction of cells with continuous adherens junctions decreased while the fraction of cells with discontinuous adherens junctions increased"}, {"measurement": "minimal concentration for appearance of discontinuous adherens junctions", "setting": "[1]; treatment for 48 hours, 10^−11 to 10^−7 M tested", "value": "10^−9 M"}, {"measurement": "adherens junctions morphology in absence and presence of fulvestrant", "setting": "MCF-7/BOS cells", "value": "same continuous adherens junctions morphology"}, {"measurement": "adherens junctions morphology in absence and presence of fulvestrant", "setting": "MCF-7/ACC115 cells", "value": "same continuous adherens junctions morphology"}, {"measurement": "change in adherens junctions morphology on staining β-Catenin, α-Catenin, p120-Catenin or cortical actin cytoskeleton", "setting": "[2]; 10^−8 M, at least 48 h", "value": "also observable"}, {"measurement": "manifestation of phenotype after short exposure", "setting": "[2]; exposure for only 2 hours, read after 48 hours in media w/o fulvestrant", "value": "lead to manifestation of the discontinuous basolateral adherens junctions phenotype"}, {"measurement": "stability of discontinuous adherens junctions independent of the presence of fulvestrant", "setting": "[2]; fulvestrant 24 hours, then 24 or 48 hours in fulvestrant-free medium", "value": "at least 48"}]}]}
